{"source": "ChEMBL document CHEMBL4828735", "about": "“Discovery of N-((3S,4S)-4-(3,4-Difluorophenyl)piperidin-3-yl)-2-fluoro-4-(1-methyl-1H-pyrazol-5-yl)benzamide (Hu7691), a Potent and Selective Akt Inhibitor That Enables Decrease of Cutaneous Toxicity” (J Med Chem, 2021)", "key": {"[1]": {"assay": "AUC(0 to t) in Sprague-Dawley rat at 15 mg/kg, ig measured upto 72 hrs by LC-MS/MS analysis", "type": "ADME, organism-based", "parameters": "route […], dose 15 mg/kg, time <=72", "conditions": "in vivo, po"}, "[2]": {"assay": "Drug metabolism in po dosed Sprague-Dawley rat urine assessed as M3 metabolite formation measured upto 72 hrs by UPLC-TOF-MS/MS analysis", "type": "ADME, organism-based", "conditions": "in vivo"}, "[3]": {"assay": "Oral bioavailability in Sprague-Dawley rat measured upto 72 hrs by LC-MS/MS analysis", "type": "ADME, organism-based", "conditions": "in vivo"}, "786-0 [4]": {"test_system": "786-0", "assay": "Antiproliferative activity against human 786-0 cells assessed as inhibition of cell growth incubated for 72 hrs by SRB method", "type": "functional, cell-based", "conditions": "786-0, 72 h"}, "[5]": {"assay": "AUC(0 to infinity) in Sprague-Dawley rat at 15 mg/kg, ig measured upto 72 hrs by LC-MS/MS analysis", "type": "ADME, organism-based", "parameters": "route […], dose 15 mg/kg, time <=72", "conditions": "in vivo, po"}, "[6]": {"assay": "Toxicity in Sprague-Dawley rat assessed as increase in body weight at 25 to 50 mg/kg administered daily for 4 weeks", "type": "organism-based", "conditions": "in vivo, 672 h, dose 25-50 mg/kg"}, "786-0 [7]": {"test_system": "786-0", "assay": "Antitumor activity against human 786-0 cells xenografted in dosed BALB/c nude mouse assessed as tumor growth inhibition at 12.5 to 50 mg/kg, ig administered once daily for 22 days", "type": "functional", "conditions": "dose 12.5-50 mg/kg, time 22 day"}, "[8]": {"biological_target": "Ribosomal protein S6 kinase alpha-1 (Homo sapiens, UniProt Q15418)", "sequence (Q15418 whole entry)": "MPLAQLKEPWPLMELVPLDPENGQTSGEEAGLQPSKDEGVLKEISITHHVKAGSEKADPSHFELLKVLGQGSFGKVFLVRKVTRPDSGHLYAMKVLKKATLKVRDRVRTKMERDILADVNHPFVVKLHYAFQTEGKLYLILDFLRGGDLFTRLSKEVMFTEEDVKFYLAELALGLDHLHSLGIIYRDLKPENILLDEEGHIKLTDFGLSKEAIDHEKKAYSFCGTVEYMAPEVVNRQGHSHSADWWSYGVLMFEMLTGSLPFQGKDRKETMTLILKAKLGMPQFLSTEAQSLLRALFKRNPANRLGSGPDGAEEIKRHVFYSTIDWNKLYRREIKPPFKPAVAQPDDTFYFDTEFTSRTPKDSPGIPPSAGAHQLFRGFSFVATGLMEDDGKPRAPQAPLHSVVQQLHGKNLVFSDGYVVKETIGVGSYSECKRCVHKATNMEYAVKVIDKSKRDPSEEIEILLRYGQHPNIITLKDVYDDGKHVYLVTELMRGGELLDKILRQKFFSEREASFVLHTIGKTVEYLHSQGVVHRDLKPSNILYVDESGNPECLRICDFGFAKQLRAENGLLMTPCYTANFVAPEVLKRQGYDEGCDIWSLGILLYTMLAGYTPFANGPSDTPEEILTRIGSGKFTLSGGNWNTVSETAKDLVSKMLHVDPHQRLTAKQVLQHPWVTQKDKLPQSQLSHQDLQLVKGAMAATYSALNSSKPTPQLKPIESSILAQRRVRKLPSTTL", "assay": "Inhibition of RSK1 (unknown origin)"}, "PC-3": {"test_system": "PC-3", "assay": "Antiproliferative activity against human PC3 cells assessed as inhibition of cell growth incubated for 72 hrs by SRB method", "type": "functional, cell-based", "conditions": "PC-3, 72 h"}, "[9]": {"assay": "Cmax in Beagle dog at 20 mg/kg, ig measured upto 96 hrs by LC-MS/MS analysis", "type": "ADME, organism-based, Canis lupus familiaris", "parameters": "route […], dose 20 mg/kg, time <=96", "conditions": "in vivo, po"}, "[10]": {"assay": "Drug metabolism in po dosed Sprague-Dawley rat bile assessed as M3 metabolite formation measured upto 24 hrs by UPLC-TOF-MS/MS analysis", "type": "ADME, organism-based", "conditions": "in vivo"}, "[11]": {"assay": "Microsomal stability in human liver microsomes assessed as half life at 50 uM preincubated for 5 mins with NADPH followed by compound addition and measured upto 60 mins by LC-MS/MS analysis", "type": "ADME, Microsome"}, "U-87 MG": {"test_system": "U-87 MG", "assay": "Antiproliferative activity against human U-87MG cells assessed as inhibition of cell growth incubated for 72 hrs by SRB method", "type": "functional, cell-based, U-87MG ATCC"}, "[12]": {"assay": "Half life in Sprague-Dawley rat at 15 mg/kg, ig measured upto 72 hrs by LC-MS/MS analysis", "type": "ADME, organism-based", "conditions": "in vivo, po"}, "[13]": {"assay": "Inhibition of PKA (unknown origin)", "parameters": "species or system Homo sapiens"}, "[14]": {"assay": "Microsomal stability in human liver microsomes assessed as intrinsic clearance at 50 uM preincubated for 5 mins with NADPH followed by compound addition and measured upto 60 mins by LC-MS/MS analysis", "type": "ADME, Microsome", "conditions": "read-out: CLH"}, "Bel-7402": {"test_system": "Bel-7402", "assay": "Antiproliferative activity against human Bel-7402 cells assessed as inhibition of cell growth incubated for 72 hrs by SRB method", "type": "functional, cell-based", "conditions": "Bel-7402, 72 h"}, "HaCaT": {"test_system": "HaCaT", "assay": "Antiproliferative activity against human HaCaT cells assessed as inhibition of cell growth incubated for 72 hrs by SRB assay", "type": "cell-based"}, "U-251": {"test_system": "U-251", "assay": "Antiproliferative activity against human U251 cells assessed as inhibition of cell growth incubated for 72 hrs by SRB method", "type": "functional, cell-based", "conditions": "U-251, 72 h"}, "[15]": {"assay": "Microsomal stability in monkey liver microsomes assessed as intrinsic clearance at 50 uM preincubated for 5 mins with NADPH followed by compound addition and measured upto 60 mins by LC-MS/MS analysis", "type": "ADME, Macaca mulatta, Microsome", "conditions": "rhesus monkey, read-out: CLH"}, "HGC-27": {"test_system": "HGC-27", "assay": "Antiproliferative activity against human HGC-27 cells assessed as inhibition of cell growth incubated for 72 hrs by SRB assay", "type": "functional, cell-based", "conditions": "HGC-27, 72 h"}, "[16]": {"assay": "Drug metabolism in po dosed Sprague-Dawley rat urine assessed as M1 metabolite formation measured upto 72 hrs by UPLC-TOF-MS/MS analysis", "type": "ADME, organism-based", "conditions": "in vivo"}, "[17]": {"assay": "Toxicity in mouse assessed as maximum toxicity dose", "conditions": "in vivo"}, "[18]": {"assay": "Toxicity in Sprague-Dawley rat assessed as effect on jejunum at 25 to 75 mg/kg administered daily for 4 weeks by histopathological analysis", "type": "organism-based", "conditions": "in vivo, 672 h, dose 25-75 mg/kg"}, "[19]": {"assay": "Drug metabolism in po dosed Sprague-Dawley rat bile assessed as M4 metabolite formation measured upto 24 hrs by UPLC-TOF-MS/MS analysis", "type": "ADME, organism-based", "conditions": "in vivo"}, "[20]": {"assay": "AUC(0 to t) in Sprague-Dawley rat at 2 mg/kg, iv measured upto 24 hrs by LC-MS/MS analysis", "type": "ADME, organism-based", "parameters": "route intravenous, dose 2 mg/kg, time <=24", "conditions": "in vivo"}, "Cytochrome P450 1A2": {"biological_target": "Cytochrome P450 1A2 (Homo sapiens, UniProt P05177)", "sequence (P05177 whole entry)": "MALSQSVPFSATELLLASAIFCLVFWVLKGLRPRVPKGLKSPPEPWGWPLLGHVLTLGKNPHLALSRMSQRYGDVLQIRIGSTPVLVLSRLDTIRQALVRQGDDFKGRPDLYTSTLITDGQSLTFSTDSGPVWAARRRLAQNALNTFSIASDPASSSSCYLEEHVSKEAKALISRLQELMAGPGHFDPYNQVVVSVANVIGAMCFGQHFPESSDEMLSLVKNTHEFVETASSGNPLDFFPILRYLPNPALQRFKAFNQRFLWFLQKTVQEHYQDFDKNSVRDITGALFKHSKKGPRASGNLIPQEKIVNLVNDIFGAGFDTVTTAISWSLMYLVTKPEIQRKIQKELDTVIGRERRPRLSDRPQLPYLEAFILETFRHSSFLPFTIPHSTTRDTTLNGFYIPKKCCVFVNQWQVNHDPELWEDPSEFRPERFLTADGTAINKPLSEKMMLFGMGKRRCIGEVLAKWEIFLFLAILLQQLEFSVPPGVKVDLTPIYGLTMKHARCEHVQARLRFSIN", "assay": "Inhibition of CYP1A2 (unknown origin)", "type": "ADME"}, "[21]": {"assay": "Drug metabolism in po dosed Sprague-Dawley rat bile assessed as M1 metabolite formation measured upto 24 hrs by UPLC-TOF-MS/MS analysis", "type": "ADME, organism-based", "conditions": "in vivo"}, "CYP2C19": {"biological_target": "CYP2C19 (Homo sapiens, UniProt P33261)", "sequence (P33261 whole entry)": "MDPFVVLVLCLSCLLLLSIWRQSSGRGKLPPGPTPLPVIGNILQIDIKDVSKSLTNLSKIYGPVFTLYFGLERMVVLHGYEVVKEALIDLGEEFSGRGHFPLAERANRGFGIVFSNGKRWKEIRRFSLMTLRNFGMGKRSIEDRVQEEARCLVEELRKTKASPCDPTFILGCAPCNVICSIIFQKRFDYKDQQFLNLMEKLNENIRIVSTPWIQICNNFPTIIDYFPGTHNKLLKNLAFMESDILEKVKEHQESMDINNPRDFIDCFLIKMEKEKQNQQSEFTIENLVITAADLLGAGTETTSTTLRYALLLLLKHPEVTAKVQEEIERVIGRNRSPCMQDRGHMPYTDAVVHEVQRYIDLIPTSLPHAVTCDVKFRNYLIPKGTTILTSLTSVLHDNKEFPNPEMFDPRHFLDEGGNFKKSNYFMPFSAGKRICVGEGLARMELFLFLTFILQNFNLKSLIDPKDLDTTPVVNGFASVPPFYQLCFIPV", "assay": "Inhibition of CYP2C19 (unknown origin) at 100 uM", "type": "ADME"}, "[22]": {"assay": "Toxicity in Sprague-Dawley rat assessed as increase in body weight at 75 mg/kg administered daily for 4 weeks", "type": "organism-based", "conditions": "in vivo, 672 h"}, "A549": {"test_system": "A549", "assay": "Antiproliferative activity against human A549 cells assessed as inhibition of cell growth incubated for 72 hrs by SRB method", "type": "functional, cell-based", "conditions": "A549, 72 h"}, "[23]": {"assay": "Tmax in Sprague-Dawley rat at 15 mg/kg, ig measured upto 72 hrs by LC-MS/MS analysis", "type": "ADME, organism-based", "conditions": "in vivo, po"}, "HepG2": {"test_system": "HepG2", "assay": "Antiproliferative activity against human HepG2 cells assessed as inhibition of cell growth incubated for 72 hrs by SRB method", "type": "functional, cell-based", "conditions": "HepG2, 72 h"}, "[24]": {"biological_target": "ALK tyrosine kinase receptor (Homo sapiens, UniProt Q9UM73)", "sequence (Q9UM73 whole entry)": "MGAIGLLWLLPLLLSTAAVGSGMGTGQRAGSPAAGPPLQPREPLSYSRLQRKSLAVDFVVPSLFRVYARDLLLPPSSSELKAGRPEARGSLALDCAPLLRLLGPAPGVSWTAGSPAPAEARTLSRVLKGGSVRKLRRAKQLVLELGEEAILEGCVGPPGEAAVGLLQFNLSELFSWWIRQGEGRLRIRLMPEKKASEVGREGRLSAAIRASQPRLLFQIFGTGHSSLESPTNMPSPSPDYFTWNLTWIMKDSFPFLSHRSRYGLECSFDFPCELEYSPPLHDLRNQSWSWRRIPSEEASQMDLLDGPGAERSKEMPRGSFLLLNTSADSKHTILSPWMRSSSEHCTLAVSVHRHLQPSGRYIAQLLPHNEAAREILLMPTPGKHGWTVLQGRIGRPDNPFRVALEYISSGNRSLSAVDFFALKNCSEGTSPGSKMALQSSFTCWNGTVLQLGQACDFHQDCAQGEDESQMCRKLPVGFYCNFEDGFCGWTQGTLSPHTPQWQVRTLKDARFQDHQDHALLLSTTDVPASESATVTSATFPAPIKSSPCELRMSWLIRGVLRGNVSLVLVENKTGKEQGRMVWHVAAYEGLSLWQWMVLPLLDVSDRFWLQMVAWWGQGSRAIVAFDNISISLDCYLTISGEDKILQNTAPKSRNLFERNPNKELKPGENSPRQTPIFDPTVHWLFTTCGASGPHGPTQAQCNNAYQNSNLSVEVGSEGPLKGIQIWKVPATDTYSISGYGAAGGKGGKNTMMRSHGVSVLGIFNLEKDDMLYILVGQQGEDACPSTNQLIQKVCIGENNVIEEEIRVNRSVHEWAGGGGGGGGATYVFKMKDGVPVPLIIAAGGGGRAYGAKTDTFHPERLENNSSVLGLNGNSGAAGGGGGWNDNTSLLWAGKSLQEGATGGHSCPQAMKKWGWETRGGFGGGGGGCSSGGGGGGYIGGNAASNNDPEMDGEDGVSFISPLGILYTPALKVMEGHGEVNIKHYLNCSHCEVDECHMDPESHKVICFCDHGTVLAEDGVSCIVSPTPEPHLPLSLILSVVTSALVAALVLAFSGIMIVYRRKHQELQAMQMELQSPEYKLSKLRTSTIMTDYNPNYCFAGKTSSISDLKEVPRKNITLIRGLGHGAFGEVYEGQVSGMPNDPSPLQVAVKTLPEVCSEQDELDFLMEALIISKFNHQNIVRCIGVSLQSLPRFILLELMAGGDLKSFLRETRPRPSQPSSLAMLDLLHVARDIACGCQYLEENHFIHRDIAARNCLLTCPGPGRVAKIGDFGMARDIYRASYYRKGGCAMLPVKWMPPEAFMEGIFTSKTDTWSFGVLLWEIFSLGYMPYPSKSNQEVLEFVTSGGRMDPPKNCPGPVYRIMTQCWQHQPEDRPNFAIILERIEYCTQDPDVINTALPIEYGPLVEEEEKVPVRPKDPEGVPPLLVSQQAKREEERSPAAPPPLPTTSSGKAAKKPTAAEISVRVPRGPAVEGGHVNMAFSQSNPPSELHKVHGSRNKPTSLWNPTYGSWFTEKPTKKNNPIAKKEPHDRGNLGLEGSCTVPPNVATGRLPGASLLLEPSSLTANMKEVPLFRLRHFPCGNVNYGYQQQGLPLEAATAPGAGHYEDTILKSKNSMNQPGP", "assay": "Inhibition of ALK (unknown origin)"}, "[25]": {"assay": "Microsomal stability in dog liver microsomes assessed as intrinsic clearance at 50 uM preincubated for 5 mins with NADPH followed by compound addition and measured upto 60 mins by LC-MS/MS analysis", "type": "ADME, Canis lupus familiaris, Microsome", "conditions": "read-out: CLH"}, "[26]": {"assay": "Microsomal stability in rat liver microsomes assessed as intrinsic clearance at 50 uM preincubated for 5 mins with NADPH followed by compound addition and measured upto 60 mins by LC-MS/MS analysis", "type": "ADME, Microsome", "conditions": "read-out: CLH"}, "Aurora kinase A": {"biological_target": "Aurora kinase A (Homo sapiens, UniProt O14965)", "sequence (O14965 whole entry)": "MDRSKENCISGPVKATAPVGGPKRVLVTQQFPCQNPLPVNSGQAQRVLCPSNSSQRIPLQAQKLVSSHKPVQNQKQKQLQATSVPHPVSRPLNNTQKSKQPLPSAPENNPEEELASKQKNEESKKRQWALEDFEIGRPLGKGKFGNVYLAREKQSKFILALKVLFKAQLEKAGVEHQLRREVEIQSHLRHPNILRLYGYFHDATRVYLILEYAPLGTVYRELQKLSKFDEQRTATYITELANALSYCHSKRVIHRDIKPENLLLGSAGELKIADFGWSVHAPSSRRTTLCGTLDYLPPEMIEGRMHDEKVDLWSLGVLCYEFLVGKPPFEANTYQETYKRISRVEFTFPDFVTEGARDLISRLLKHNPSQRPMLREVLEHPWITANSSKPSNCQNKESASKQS", "assay": "Inhibition of Aurora A (unknown origin)"}, "[27]": {"assay": "Drug metabolism in po dosed Sprague-Dawley rat urine assessed as M4 metabolite formation measured upto 72 hrs by UPLC-TOF-MS/MS analysis", "type": "ADME, organism-based", "conditions": "in vivo"}, "HT-29": {"test_system": "HT-29", "assay": "Antiproliferative activity against human HT-29 cells assessed as inhibition of cell growth incubated for 72 hrs by SRB method", "type": "functional, cell-based", "conditions": "HT-29, 72 h"}, "[28]": {"assay": "Toxicity in Sprague-Dawley rat assessed as change in biochemical parameters at 25 to 75 mg/kg administered daily for 4 weeks", "type": "organism-based", "conditions": "in vivo, 672 h, dose 25-75 mg/kg"}, "[29]": {"assay": "Microsomal stability in mouse liver microsomes assessed as half life at 50 uM preincubated for 5 mins with NADPH followed by compound addition and measured upto 60 mins by LC-MS/MS analysis", "type": "ADME, Microsome"}, "KHOS/NP": {"test_system": "KHOS/NP", "assay": "Antitumor activity against human KHOS cells xenografted in dosed BALB/c nude mouse assessed as tumor growth inhibition at 25 mg/kg, ig administered once daily for 22 days", "type": "functional, organism-based", "conditions": "time 22.0 day"}}, "note": "Activity calls are given as the source filed them. The calls are words filed in the database; no cut-off is given here.", "data": [{"compound": "Cl.Cn1nccc1-c1ccc(C(=O)N[C@@H]2CNCC[C@H]2c2ccc(F)c(F)c2)c(F)c1", "values": [{"measurement": "AUC(0-t) at 72 h", "setting": "[1]", "value": 2280, "unit": "ng·h/mL"}, {"measurement": "Drug metabolism", "setting": "[2]", "value": "Metabolite_Detected"}, {"measurement": "bioavailability", "setting": "[3]", "value": 66.2, "unit": "%"}, {"measurement": "IC50", "setting": "786-0 [4]", "value": 8.6, "unit": "µM"}, {"measurement": "AUC(0-inf)", "setting": "[5]", "value": 2820, "unit": "ng·h/mL"}, {"measurement": "Activity", "setting": "[6]", "value": "Toxic"}, {"measurement": "TGI", "setting": "786-0 [7]", "value": 70, "unit": "%"}, {"measurement": "IC50", "setting": "[8]", "value": 0.756, "unit": "µM"}, {"measurement": "IC50", "setting": "PC-3", "value": 8.74, "unit": "µM"}, {"measurement": "Cmax", "setting": "[9]", "value": 906, "unit": "ng/mL"}, {"measurement": "Drug metabolism", "setting": "[10]", "value": "Metabolite_Detected"}, {"measurement": "half-life at 50 µM", "setting": "[11]", "value": 16.2, "unit": "h"}, {"measurement": "IC50", "setting": "U-87 MG", "value": 9.26, "unit": "µM"}, {"measurement": "half-life", "setting": "[12]", "value": 8.68, "unit": "h"}, {"measurement": "IC50", "setting": "[13]", "value": 0.011, "unit": "µM"}, {"measurement": "microsomal CLint at 50 µM", "setting": "[14]", "value": 1.4, "unit": "µL/min/mg"}, {"measurement": "IC50", "setting": "Bel-7402", "value": 26.6, "unit": "µM"}, {"measurement": "IC50", "setting": "HaCaT", "value": 15.2, "unit": "µM"}, {"measurement": "IC50", "setting": "U-251", "value": 6.53, "unit": "µM"}, {"measurement": "microsomal CLint at 50 µM", "setting": "[15]", "value": 13.6, "unit": "µL/min/mg"}, {"measurement": "IC50", "setting": "HGC-27", "value": 0.68, "unit": "µM"}, {"measurement": "Drug metabolism", "setting": "[16]", "value": "Metabolite_Detected"}, {"measurement": "MTD", "setting": "[17]", "value": 150, "unit": "mg/kg"}, {"measurement": "Activity", "setting": "[18]", "value": "Non-Toxic"}, {"measurement": "Drug metabolism", "setting": "[19]", "value": "Metabolite_Detected"}, {"measurement": "AUC(0-t) at 24 h", "setting": "[20]", "value": 459, "unit": "ng·h/mL"}, {"measurement": "IC50", "setting": "Cytochrome P450 1A2", "value": "> 100", "unit": "µM"}, {"measurement": "Drug metabolism", "setting": "[21]", "value": "Metabolite_Detected"}, {"measurement": "inhibition at 100 µM", "setting": "CYP2C19", "value": 65, "unit": "%"}, {"measurement": "Activity", "setting": "[22]", "value": "Non-Toxic"}, {"measurement": "IC50", "setting": "A549", "value": 6.56, "unit": "µM"}, {"measurement": "Tmax", "setting": "[23]", "value": 1.67, "unit": "h"}, {"measurement": "IC50", "setting": "HepG2", "value": 3.6, "unit": "µM"}, {"measurement": "IC50", "setting": "[24]", "value": "> 10", "unit": "µM"}, {"measurement": "microsomal CLint at 50 µM", "setting": "[25]", "value": 4.1, "unit": "µL/min/mg"}, {"measurement": "microsomal CLint at 50 µM", "setting": "[26]", "value": 20, "unit": "µL/min/mg"}, {"measurement": "IC50", "setting": "Aurora kinase A", "value": "> 10", "unit": "µM"}, {"measurement": "Drug metabolism", "setting": "[27]", "value": "Metabolite_Detected"}, {"measurement": "IC50", "setting": "HT-29", "value": 20.3, "unit": "µM"}, {"measurement": "Activity", "setting": "[28]", "value": "Non-Toxic"}, {"measurement": "half-life at 50 µM", "setting": "[29]", "value": 6.73, "unit": "h"}, {"measurement": "Activity", "setting": "KHOS/NP", "value": "Active"}]}]}
